ChEMBL document CHEMBL4732063, “Ninhydrins inhibit carbonic anhydrases directly binding to the metal ion” (Eur J Med Chem, 2021)

What was measured:
Carbonic anhydrase 4 = Carbonic anhydrase 4 (Homo sapiens, UniProt P22748); test: Inhibition of recombinant human carbonic anhydrase 4 preincubated with enzyme for 15 mins by phenol red dye based stopped flow CO2 hydration assay
Carbonic anhydrase 9 = Carbonic anhydrase 9 (Homo sapiens, UniProt Q16790); test: Inhibition of recombinant human carbonic anhydrase 9 preincubated with enzyme for 15 mins by phenol red dye based stopped flow CO2 hydration assay
Carbonic anhydrase 2 = Carbonic anhydrase 2 (Homo sapiens, UniProt P00918); test: Inhibition of recombinant human carbonic anhydrase 2 preincubated with enzyme for 15 mins by phenol red dye based stopped flow CO2 hydration assay
Carbonic anhydrase 1 = Carbonic anhydrase 1 (Homo sapiens, UniProt P00915); test: Inhibition of recombinant human carbonic anhydrase 1 preincubated with enzyme for 15 mins by phenol red dye based stopped flow CO2 hydration assay
Carbonic anhydrase 1, sequence (P00915 whole entry): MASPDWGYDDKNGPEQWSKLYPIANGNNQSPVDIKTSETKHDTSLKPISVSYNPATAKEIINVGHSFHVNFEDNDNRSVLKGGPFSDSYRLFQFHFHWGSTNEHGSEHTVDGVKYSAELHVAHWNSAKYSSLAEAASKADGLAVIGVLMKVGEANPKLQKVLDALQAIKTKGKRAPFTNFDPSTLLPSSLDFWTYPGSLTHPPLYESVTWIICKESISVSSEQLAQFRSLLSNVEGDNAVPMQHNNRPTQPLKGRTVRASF

Carbonic anhydrase 7 = Carbonic anhydrase 7 (Homo sapiens, UniProt P43166); test: Inhibition of recombinant human carbonic anhydrase 7 preincubated with enzyme for 15 mins by phenol red dye based stopped flow CO2 hydration assay
Carbonic anhydrase 7, sequence (P43166 whole entry): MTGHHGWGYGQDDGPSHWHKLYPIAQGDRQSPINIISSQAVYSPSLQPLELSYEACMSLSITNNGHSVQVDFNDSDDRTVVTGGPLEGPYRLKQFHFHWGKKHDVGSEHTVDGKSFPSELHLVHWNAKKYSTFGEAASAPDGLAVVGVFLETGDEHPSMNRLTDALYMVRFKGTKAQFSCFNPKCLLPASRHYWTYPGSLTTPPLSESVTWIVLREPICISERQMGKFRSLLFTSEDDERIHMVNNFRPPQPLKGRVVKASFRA

Carbonic anhydrase 4, sequence (P22748 whole entry): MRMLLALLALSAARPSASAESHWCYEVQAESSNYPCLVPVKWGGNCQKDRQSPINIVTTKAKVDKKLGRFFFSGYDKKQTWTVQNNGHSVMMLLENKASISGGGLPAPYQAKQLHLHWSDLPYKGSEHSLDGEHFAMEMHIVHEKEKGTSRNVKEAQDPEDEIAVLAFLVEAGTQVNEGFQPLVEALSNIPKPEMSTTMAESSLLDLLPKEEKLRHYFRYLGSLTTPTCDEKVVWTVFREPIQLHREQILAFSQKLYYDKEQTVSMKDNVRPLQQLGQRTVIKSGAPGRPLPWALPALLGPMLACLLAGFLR

| SMILES | Ki (Carbonic anhydrase 4) | Ki (Carbonic anhydrase 9) | Ki (Carbonic anhydrase 2) | Ki (Carbonic anhydrase 1) | Ki (Carbonic anhydrase 7) |
| --- | --- | --- | --- | --- | --- |
| O=C1c2ccccc2C(=O)C1(O)O | > 100 µM | 2.37 µM | 22.7 µM | 5.38 µM | 0.074 µM |
| O=C1c2cc(Br)cc(Br)c2C(=O)C1(O)O | > 100 µM | 2.81 µM | – | – | – |
| Cc1ccc2c(c1)C(=O)C(O)(O)C2=O | 84.6 µM | 16.8 µM | – | – | – |
| O=C1c2ccc([N+](=O)[O-])cc2C(=O)C1(O)O | > 100 µM | 29.6 µM | – | – | – |
| O=C1c2cccc(Br)c2C(=O)C1(O)O | > 100 µM | 61.2 µM | – | – | – |
| COc1ccc(CNC(=O)CCl)c2c1C(=O)C(O)(O)C2=O | > 100 µM | 8.41 µM | – | – | – |
| O=C1c2cccc([N+](=O)[O-])c2C(=O)C1(O)O | > 100 µM | 31 µM | – | – | – |
| COc1cc2c(cc1OC)C(=O)C(O)(O)C2=O | > 100 µM | 30.4 µM | – | – | – |
| O=C1c2ccc(Br)cc2C(=O)C1(O)O | 71.3 µM | 2.85 µM | – | – | – |
| O=C1c2cccc(O)c2C(=O)C1(O)O | > 100 µM | 17.1 µM | – | – | – |
| Cc1cccc2c1C(=O)C(O)(O)C2=O | > 100 µM | 51.4 µM | – | – | – |
| O=C1c2cccc(F)c2C(=O)C1(O)O | > 100 µM | 44.3 µM | – | – | – |
| CC(C)Oc1cccc2c1C(=O)C(O)(O)C2=O | > 100 µM | 1.34 µM | – | – | – |
| COc1ccc2c(c1)C(=O)C(O)(O)C2=O | 74.3 µM | 13.4 µM | – | – | – |
| COc1ccc(OC)c2c1C(=O)C(O)(O)C2=O | > 100 µM | 68.2 µM | – | – | – |
| O=C1c2ccc(F)cc2C(=O)C1(O)O | > 100 µM | 38.7 µM | – | – | – |
| O=C1c2ccc(O)cc2C(=O)C1(O)O | > 100 µM | 27.8 µM | – | – | – |
| COc1ccc(C(C)C)c2c1C(=O)C(O)(O)C2=O | > 100 µM | 54.3 µM | – | – | – |
| O=C1c2c(Br)c(Br)c(Br)c(Br)c2C(=O)C1(O)O | 39.7 µM | 46.7 µM | – | – | – |
| COc1cccc2c1C(=O)C(O)(O)C2=O | > 100 µM | 34.1 µM | – | – | – |
